In US10258595B2, “Pharmaceutical formulation for histone deacetylase inhibitors” (TetraLogic Shape UK Ltd, priority 2010, dated 2019):
Where two headings read alike, the source gives them in different places. Blank lines part the entries; values can stand above or below the compound they belong to.

Tests used:
[1] = Degradation of compound (II) in neutral ethanol; format: physicochemical; details: room temperature, 24 hours
[2] = Saturation solubility of compound (II) in the gel formulation; format: physicochemical; details: acidified nonaqueous gel, refrigerated storage (2-8° C.)
[3] = Exposure of gels to laboratory light; format: physicochemical; details: exposure to laboratory light for up to five days
[4] = Description: The method has historic precedent for accurately predicting in vivo percutaneous absorption kinetics.
To assure the integrity of each skin section, its permeability to tritiated water was determined before application of the test products.

[5] = skin dosed with compound (II) formulations

degradation of compound (II) [1]: approximately 50%
formulation's saturation solubility for compound (II) [2]: approximately 1.6 % w/w
effect of light on assay values for compound (II) [3]: did not significantly affect
detectable compound (II) found in the epidermis ([4]; human, 24 h, pH 6): 0.3-0.9%
detectable compound (II) found in the surface wash ([4]; human, 24 h, pH 6): 20-69%
SMILES: COC(=O)c1ccc(OC(=O)CCCCCCC(=O)NO)cc1 [Compound (II)]

SMILES: COC(=O)c1ccc(O)cc1 [Methylparaben]
presence of degradation products in the samples [4, 5]: present in the majority of the samples

SMILES: O=C(O)c1ccc(O)cc1 [4-OH Benzoic acid]
presence of degradation products in the samples [4, 5]: present in the majority of the samples

presence of degradation products in the samples [4]: present in the majority of the samples
SMILES: O=C(O)CCCCCCC(=O)NO [Compound (III)]
